Results as given in PMC12089509, “NorA Efflux Pump Inhibitors: Expanding SAR Knowledge of Pyrazolo[4,3‐c][1,2]benzothiazine 5,5‐Dioxide Derivatives” (Archiv Der Pharmazie, 2025).
Converted amounts (≈) assume the structure as drawn. Where two headings read alike, the source gives them in different places.

Experiments:
[1] = molecular target: T1, S. aureus NorA efflux pump (SA-1199B strain, overexpresses the norA gene) (Staphylococcus aureus, UniProt P0A0J7); assay: EtBr efflux inhibition assay; type: cell-based; conditions: for inhibition at 10 µM: read-out: EtBr efflux inhibition (%), compound at 10 µM, SA-1199B; for inhibition at 50 µM: read-out: EtBr efflux inhibition (%), compound at 50 µM, SA-1199B
T1 construct: endogenous in cells; host or cells: S. aureus SA-1199B (overexpresses norA; isogenic parent SA-1199)
T1 sequence (P0A0J7 whole entry): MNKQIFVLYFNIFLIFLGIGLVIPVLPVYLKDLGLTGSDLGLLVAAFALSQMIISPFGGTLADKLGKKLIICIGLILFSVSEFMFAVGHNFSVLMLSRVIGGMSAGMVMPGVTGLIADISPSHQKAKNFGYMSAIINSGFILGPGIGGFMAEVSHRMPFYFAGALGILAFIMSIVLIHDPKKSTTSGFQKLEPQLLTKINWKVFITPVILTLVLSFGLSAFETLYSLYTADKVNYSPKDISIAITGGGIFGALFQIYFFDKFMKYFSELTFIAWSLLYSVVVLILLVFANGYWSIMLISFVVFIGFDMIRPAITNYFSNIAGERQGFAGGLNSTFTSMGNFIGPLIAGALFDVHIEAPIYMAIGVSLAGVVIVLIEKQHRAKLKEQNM
Procedure: EtBr efflux inhibition assays were conducted using the S. aureus SA‐1199B strain, which overexpresses the norA gene and has an A116E GrlA substitution. Each compound was tested at 50 µM (see Figure 2). The starting hit compound 1 was used as the internal standard for comparison with the previously reported data.
The cells were grown overnight in cation‐supplemented Mueller–Hinton broth (CAMHB) without any additives at 35°C. The organisms were subsequently diluted into CAMHB to obtain an optical density at 600 nm (OD600) of 0.7–0.8. Subsequently, the cells were pelleted and resuspended at an OD600 of 0.8 in 0.5 mL aliquots of CAMHB containing EtBr and carbonyl cyanide m‐chlorophenylhydrazone (CCCP) to “load” the cells with EtBr (final concentrations of 25 μM for EtBr and 100 μM for CCCP). Following 20 min of incubation at room temperature, the cells were pelleted and resuspended in 1 mL of fresh CAMHB. Immediately thereafter, 200 μL aliquots were transferred into the wells of white 96‐well plates, which either lacked or contained 50 or 10 μM of each test compound. Fluorescence was monitored continuously using a microplate reader (Infinite M200 Pro, TECAN) at excitation and emission wavelengths of 485 and 645 nm, respectively, for a period of 5 min. The experiments were conducted in triplicate, with two technical replicates per biological replicate. The efflux activity of the SA‐1199B strain was expressed as a percentage of fluorescence decrease over a 5‐min time course. The inhibition of this efflux by the test compounds was determined using the following equation: ([efflux in the absence] ‐ [efflux in the presence of test [compound])/[efflux in the absence of test compound] × 100, which yielded the percent efflux inhibition observed.
^a Experiments were performed in triplicate with two technical replicates per biological replicate. Efflux activity of SA-1199B was expressed as percent fluorescence decrease over a 5 min time course. Inhibition of this efflux by test compounds was determined using the equation [efflux in the absence] − [efflux in the presence of test [compound]/[efflux in the absence of test compound] × 100, giving the percent efflux inhibition observed.

[2] = test system: Staphylococcus aureus SA-1199B; assay: MIC determination (broth microdilution) against SA-1199B; type: cell-based; conditions: SA1199B
Excerpt: (§1) In this study, the S. aureus strains SA‐1199B (overexpressing norA) and its isogenic parent SA‐1199 (wild type), the pair SA‐K1902 (norA‐depleted) and SA‐K2378 (complemented with a pCU1 plasmid harboring the norA promoting and coding region from SA‐1199B), were used to test EPI activity as described in a previous study. Furthermore, the S. aureus ATCC 29213 was used as the reference strain in MIC determination experiments.

[3] = test system: Staphylococcus aureus SA-1199B; type: cell-based
Excerpt: For purposes of comparison, compound 1 was included as a reference.

[4] = test system: S. aureus SA-1199 (wild type); assay: MIC determination against wild-type SA-1199; type: cell-based; conditions: Staphylococcus aureus, compound alone
Excerpt: (§2) This finding aligns with their mechanism of action, which involves the inhibition of NorA, which is only basally expressed in the wild‐type SA‐1199 strain.

[5] = test system: S. aureus SA-1199 (wild type); assay: Synergistic assay with CPX against wild-type SA-1199; type: cell-based, Staphylococcus aureus; conditions: EPI at 3.13 µg/mL with CPX
Excerpt: as §2

[6] = test system: S. aureus SA-K1902 (norA-); assay: MIC evaluation against SA-K1902; type: cell-based, Staphylococcus aureus
Excerpt: (§3) Conversely, interesting results were obtained against SA‐K2378, which overexpresses the norA gene (Table 2). […] This corroborates the hypothesis that their activity is strictly related to NorA EP inhibition.
as §1

[7] = test system: S. aureus SA-K1902 (norA-); assay: Checkerboard assay EPI/CPX against SA-K1902; type: cell-based, Staphylococcus aureus
Procedure: (§4) Checkerboard assays were carried out using SA‐K1902 and SA‐K2378 strains according to standard procedures.

[8] = test system: S. aureus SA-K2378 (norA ++); assay: MIC evaluation against SA-K2378; type: cell-based, Staphylococcus aureus
Excerpt: as §3, §1

[9] = test system: S. aureus SA-K2378 (norA ++); assay: Checkerboard assay EPI/CPX against SA-K2378; type: cell-based, Staphylococcus aureus
Procedure: as §3, §4

[10] = MTT cytotoxicity assay on A549; type: cell-based; conditions: human, A549 cells, read-out: Cytotoxicity (% cell viability)
Procedure: (§5) The MTT assay was performed on two human ATCC cell lines, that is, […] (CCL‐185) and MCF7 (HTB‐22), to test the potential cytotoxic effect of the compounds, after 72 h exposure, as previously described. Each compound was tested at concentrations ranging from 12.5 to 100 μg/mL. Untreated cells were considered as controls. The percentage of viable cells was calculated as follows: % Cell viability = 100 × treated well absorbance/untreated control well absorbance. All assays were performed once in technical quadruplicate.

[11] = MTT cytotoxicity assay on MCF7; type: cell-based; conditions: human, MCF7 cells, read-out: Cytotoxicity (% cell viability)
Procedure: as §5

[12] = test system: Staphylococcus aureus SA-K2378 biofilm; type: cell-based; conditions: CPX alone at ½ MIC, vs untreated control
Excerpt: The formation of biofilms is a significant contributor to the development of AMR [1, 26, 27]. This is due to the fact that biofilms provide a protective environment for bacteria, thereby rendering them more resilient to the effects of common antibacterial agents. Over the years, several investigations have been conducted to study the role of EPs in the various stages of microbial biofilm formation. However, a definitive answer regarding the potential role of EPs in this microbial pathway remains elusive. While some studies have reported a negative effect of certain EPs on biofilm formation, others have highlighted the promising role of EPIs in limiting biofilm formation and enhancing the efficacy of antibiotics under biofilm conditions.
The biofilm production by SA‐K1902 and SA‐K2378 strains was analyzed in flat 96‐well microtiter plates as previously described, with some modifications. […] The microplates were incubated at 37°C for 24 h in static conditions. After incubation, the biofilms were washed three times with distilled water, dried at 60°C for 1 h, and stained with 0,1% crystal violet for 10 min. After staining, the crystal violet was removed and the wells were washed three times with water, dried at 37°C for 30 min, and the bound crystal violet was solubilized with 96% ethanol in shaking conditions. At the end of the destaining, the absorbance (570 nm) of the solutions in each well was measured using the FLUOstar Omega plate reader (BMG‐LABTECH, Germany) to quantify the biofilm produced in each condition compared with the control (biofilm produced by the strain without any compound/antibiotic). Biofilm assays were performed in triplicate for each condition.

For `CN1c2c(-c3ccc(F)cc3)nn(C)c2-c2ccc(OCCN3CCCCC3)cc2S1(=O)=O` [Compound 20, 3‐(4‐Fluorophenyl)‐1,4‐dimethyl‐7‐(2‐piperidin‐1‐ylethoxy)‐1,4‐dihydropyrazolo[4,3‐c][1,2]benzothiazine 5,5‐dioxide], the inhibition at 10 µM [1] was 33%, the inhibition at 50 µM [1] was over 70% and the MIC [2] was over 50 µg/mL. For the same compound, the “N° fold CPX MIC reduction” value ([3]; EPI at 6.25 µg/mL) was 2 fold, the “N° fold CPX MIC reduction” value ([3]; EPI at 12.5 µg/mL) was 8 fold and the MIC [4] was over 50 µg/mL. For the same compound, the “synergistic effect with CPX” value [5] was “did not show any synergistic effect”.

`CN1c2c(-c3ccc(F)c(Cl)c3)n[nH]c2-c2ccccc2S1(=O)=O` [Compound 13, 3‐(3‐Chloro‐4‐fluorophenyl)‐4‐methyl‐1,4‐dihydropyrazolo[4,3‐c][1,2]benzothiazine 5,5‐dioxide] gave an inhibition at 10 µM [1] of 0%, an inhibition at 50 µM [1] of 100% and an MIC [2] of over 50 µg/mL. For the same compound, the “N° fold CPX MIC reduction” value ([3]; EPI at 3.12 µg/mL) was 2 fold, the “N° fold CPX MIC reduction” value ([3]; EPI at 12.5 µg/mL) was 4 fold and the MIC [4] was over 50 µg/mL. The “synergistic effect with CPX” value [5] was “did not show any synergistic effect”.

With `O=[N+]([O-])c1ccc(-n2nc(-c3ccc(Cl)cc3)c3c2-c2ccccc2S(=O)(=O)N3)cc1` [Compound 1, reference compound] the inhibition at 10 µM [1] was 0%, the inhibition at 50 µM [1] was 77% and the MIC [2] was 50 µg/mL (≈ 110 µM). For the same compound, the “N° fold CPX MIC reduction” value ([3]; EPI at 3.12 µg/mL) was 2 fold, the “N° fold CPX MIC reduction” value ([3]; EPI at 6.25 µg/mL) was 8 fold and the “N° fold CPX MIC reduction” value ([3]; EPI at 12.5 µg/mL) was 16 fold. The MIC ([6]; Staphylococcus aureus) was 12.5 µg/mL (≈ 27.6 µM), the “CPX MIC” value ([7]; EPI at 0.8 µg/mL) was 0.15 µg/mL and the “N° CPX MIC reduction” value ([7]; EPI at 0.8 µg/mL) was 0. For the same compound, the “CPX MIC” value ([7]; EPI at 1.6 µg/mL) was 0.15 µg/mL, the “N° CPX MIC reduction” value ([7]; EPI at 1.6 µg/mL) was 0 and the “CPX MIC” value ([7]; EPI at 3.13 µg/mL) was 0.15 µg/mL. For the same compound, the “N° CPX MIC reduction” value ([7]; EPI at 3.13 µg/mL) was 0, the MIC ([8]; Staphylococcus aureus) was 12.5 µg/mL (≈ 27.6 µM) and the “CPX MIC” value ([9]; EPI at 0.8 µg/mL) was 0.6 µg/mL. For the same compound, the “N° CPX MIC reduction” value ([9]; EPI at 0.8 µg/mL) was 2, the “CPX MIC” value ([9]; EPI at 1.6 µg/mL) was 0.3 µg/mL and the “N° CPX MIC reduction” value ([9]; EPI at 1.6 µg/mL) was 4. For the same compound, the “CPX MIC” value ([9]; EPI at 3.13 µg/mL) was 0.3 µg/mL, the “N° CPX MIC reduction” value ([9]; EPI at 3.13 µg/mL) was 4 and the viability at 72 h, 12.5 µg/mL ([10]; A549, 12.5 μg/mL) was 90 ± 16%. For the same compound, the viability at 72 h, 25 µg/mL ([10]; A549, 25 μg/mL) was 76 ± 1%, the viability at 72 h, 50 µg/mL ([10]; A549, 50 μg/mL) was 32 ± 5% and the viability at 72 h, 100 µg/mL ([10]; A549, 100 μg/mL) was 8 ± 1%. For the same compound, the viability at 72 h, 12.5 µg/mL ([11]; MCF7, 12.5 μg/mL) was 81 ± 6%, the viability at 72 h, 25 µg/mL ([11]; MCF7, 25 μg/mL) was 71 ± 3% and the viability at 72 h, 50 µg/mL ([11]; MCF7, 50 μg/mL) was 50 ± 3%. The viability at 72 h, 100 µg/mL ([11]; MCF7, 100 μg/mL) was 43 ± 3%.

With `O=C(O)c1cn(C2CC2)c2cc(N3CCNCC3)c(F)cc2c1=O` [CPX, ciprofloxacin, reference compound] the MIC [2] was 10 µg/mL (≈ 30.2 µM), the “CPX MIC” value ([6]; CPX alone, SA-K1902 (norA-)) was 0.15 µg/mL and the “CPX MIC” value ([8]; CPX alone, SA-K2378 (norA ++)) was 1.25 µg/mL. The “increase in biofilm formation” value [12] was 42%.

With `CN1c2c(-c3ccc(F)cc3)n[nH]c2-c2ccccc2S1(=O)=O` [Compound 12, 3‐(4‐Fluorophenyl)‐4‐methyl‐1,4‐dihydropyrazolo[4,3‐c][1,2]benzothiazine 5,5‐dioxide] the inhibition at 10 µM [1] was 22%, the inhibition at 50 µM [1] was 87% and the MIC [2] was over 50 µg/mL. For the same compound, the MIC [4] was over 50 µg/mL and the “synergistic effect with CPX” value [5] was “did not show any synergistic effect”.

For `CCN(CC)CCOC1=C(C(=O)c2ccc(F)cc2)N(C)S(=O)(=O)c2ccccc21` [Compound 23, {4‐[2‐(Diethylamino)ethoxy]‐2‐methyl‐1,1‐dioxido‐2H‐1,2‐benzothiazin‐3‐yl}(4‐fluorophenyl)methanone], the inhibition at 50 µM [1] was 36%, the MIC [2] was over 50 µg/mL and the “N° fold CPX MIC reduction” value ([3]; EPI at 12.5 µg/mL) was 2 fold.

Work on `CN1c2c(-c3ccc(Cl)cc3)nn(CCN3CCCCC3)c2-c2ccccc2S1(=O)=O` [Compound 18, 3‐(4‐Chlorophenyl)‐4‐methyl‐1‐(2‐piperidin‐1‐ylethyl)‐1,4‐dihydropyrazolo[4,3‐c][1,2]benzothiazine 5,5‐dioxide] yielded an inhibition at 10 µM [1] of 37%, an inhibition at 50 µM [1] of over 70% and an MIC [2] of over 50 µg/mL. For the same compound, the “N° fold CPX MIC reduction” value ([3]; EPI at 6.25 µg/mL) was 2 fold, the “N° fold CPX MIC reduction” value ([3]; EPI at 12.5 µg/mL) was 4 fold and the MIC [4] was over 50 µg/mL. For the same compound, the “synergistic effect with CPX” value [5] was “did not show any synergistic effect”.

In the case of `CN1C(C(=O)c2ccc(F)cc2)=C(OCCN2CCCCC2)c2ccccc2S1(=O)=O` [Compound 24, (4‐Fluorophenyl)[2‐methyl‐1,1‐dioxido‐4‐(2‐piperidin‐1‐ylethoxy)‐2H‐1,2‐benzothiazin‐3‐yl]methanone], the inhibition at 50 µM [1] is reported as 38%, the MIC [2] is reported as over 50 µg/mL and the “N° fold CPX MIC reduction” value ([3]; EPI at 12.5 µg/mL) is reported as 2 fold.
